Results from patent US7175829B2, “Contrast-enhanced diagnostic imaging method for monitoring interventional therapies” (Epix Pharmaceuticals, Inc., priority 1997, dated 2007).
Values belong to the molecule of their own block, whether it stands above or below them.

Experiments:
[1] = molecular target: T1, human serum albumin (HSA) (Homo sapiens, UniProt P02768); assay: Relaxivity R1 at 20 MHz during thermal denaturation of 4.5% HSA solutions; format: physicochemical; conditions: for R1: 20 MHz, 4.5% HSA solution; for R1 / net loss in R1 after denatured samples cooled to physiological temperature / loss in observed R1 during denaturation of the HSA: 0.3 mM Gd-DTPA, 0.1 mM MS-325; for net loss in R1 after denatured samples cooled to physiological temperature: denatured samples cooled to 37° C.; for loss in observed R1 during denaturation of the HSA: from immediately before denaturation (56.2° C.) to immediately after denaturation (85° C.)
Procedure: (§1) In these examples, the longitudinal relaxivities (R1, mM^−1 sec^−1) were monitored and obtained at 20 MHz by determining the relaxation rate (1/T1) of water protons in phosphate buffered saline (PBS, 150 mM NaCl, 10 mM phosphate, pH=7.4), in PBS solutions containing 4.5 wt % HSA, or in gels containing 4.5 wt % HSA and 1% Agar. The dependence of temperature on relaxivity (R1) was observed by varying the temperature of the samples with a circulating water bath and monitoring sample temperature with a thermocouple.
(§2) The following three samples were prepared in solutions of 4.5% HSA: (1) a control sample without a contrast agent; (2) a comparative sample with Gd-DTPA; and (3) a sample with MS-325. The samples with Gd-DTPA and MS-325 were prepared by adding an aqueous formulation (pH=7) comprising either Gd-DTPA or MS-325 to the 4.5% HSA solution.
The three samples were then used to monitor the thermal denaturation of the 4.5% HSA solutions. […] Each sample was then removed from the NMR and heated at 85° C. for 15 minutes to induce thermal denaturation of the HSA. Subsequently, the sample was returned to the NMR and T1 data was collected at this higher temperature.

[2] = molecular target: T1, human serum albumin (HSA); assay: T1-weighted MRI at 1.0 Tesla of agar phantoms containing 4.5% HSA during thermal denaturation; format: physicochemical; conditions: for % Loss ROI: 1% agar, 4.5% HSA; for % Loss ROI / loss in signal intensity after denaturation and cooling / loss of signal intensity on thermal denaturation: 0.3 mM Gd-DTPA, 0.1 mM MS-325; for loss in signal intensity after denaturation and cooling: denatured phantoms cooled to 37° C.; for loss of signal intensity on thermal denaturation: phantoms heated above 50–60° C.
Procedure: The following samples were prepared in 1% agar gels containing 4.5% HSA: (1) a control sample without a contrast agent; (2) a comparative sample with Gd-DTPA; and (3) a sample with MS-325. The contrast agents were added in an amount sufficient such that the concentration of Gd-DTPA and MS-325 were 0.3 mM Gd-DTPA and 0.1 mM MS-325, respectively. Such agar gels containing 4.5% HSA are referred to as “phantoms”.
Initial T1-weighted MRI scans (FISP-3D, TR=15, TE=4, alpha=30) at 1.0 Tesla of the agar phantoms were then obtained at a temperature of about 25° C.
The phantoms were then heated in a circulating water bath with additional T1-weighted MRI scans obtained over time.

[3] = molecular target: T1, human serum albumin (HSA); assay: Relaxivity R1 at 20 MHz during ethanol denaturation of 4.5% HSA solutions; format: physicochemical; conditions: for decrease/change in observed relaxivity during ethanol ablation: 4.5% HSA solutions, 0.31 mM Gd-DTPA, 0.08 mM MS-325, 37° C.; for R1 0.31 mM Gd-DTPA / R1 0.08 mM MS-325: 4.5% HSA, 37° C.
Procedure: as §1, §2
Absolute ethanol was then titrated to each of the samples. T1 data (and thus R1 data (=1/T1)) was collected at 20 MHz and 37° C. after each addition of ethanol.

[4] = Rat plasma pharmacokinetic experiment (blood retention, AUC-conc.); format: in vivo; conditions: two rats, tail vein injection of 0.1 mmol/kg Gd^153-labeled Gd-DTPA
Description: The incorporation into a contrast agent of this invention of a BHEM results in prolonged blood retention of the agent. […] Blood retention (as measured by AUC-conc) can be evaluated experimentally by administration of a contrast agent to rats, rabbits, or higher mammals. It has been observed that blood half-life extension is greater in rabbits and higher mammals than in rats. In this application, blood half-life data, as measured by AUC-conc., represents experimentation in rats.
For example, the average plasma concentrations observed after tail vein injection of 0.1 mmol/kg of Gd^153-labeled Gd-DTPA in two rats is shown in FIG. 1.

[5] = test system: alpha 1-acid glycoprotein (AAG); conditions: binding to alpha 1-acid glycoprotein; cited from earlier work
[6] = 85.0 °C, after heating at 85° C. for 15 minutes (HSA denatured)
[7] = 120 min, 35.5 °C (cooled after denaturation), 1.0 Tesla

T1 sequence (P02768 25-609): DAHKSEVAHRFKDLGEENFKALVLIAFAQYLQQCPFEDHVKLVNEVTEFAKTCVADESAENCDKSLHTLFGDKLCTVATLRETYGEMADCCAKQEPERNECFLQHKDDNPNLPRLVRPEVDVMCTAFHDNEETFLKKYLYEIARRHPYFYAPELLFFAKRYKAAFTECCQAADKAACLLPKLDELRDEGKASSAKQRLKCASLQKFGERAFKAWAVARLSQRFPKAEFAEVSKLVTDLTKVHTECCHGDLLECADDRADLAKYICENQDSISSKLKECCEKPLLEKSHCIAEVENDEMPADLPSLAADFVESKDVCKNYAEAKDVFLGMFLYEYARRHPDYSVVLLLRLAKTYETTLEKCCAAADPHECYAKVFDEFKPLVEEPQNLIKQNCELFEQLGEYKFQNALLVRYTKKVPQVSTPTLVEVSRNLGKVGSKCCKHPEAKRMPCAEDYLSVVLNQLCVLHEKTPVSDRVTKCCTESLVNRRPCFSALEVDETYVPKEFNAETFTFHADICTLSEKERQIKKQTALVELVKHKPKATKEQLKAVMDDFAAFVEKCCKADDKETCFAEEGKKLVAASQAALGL

Structure (SMILES): O=C([O-])CN(CCN(CC(=O)[O-])CC(=O)O)CCN(CC(=O)[O-])CC(=O)O.[Gd+3] [Gd-DTPA, reference compound]
R1 ([1]; 7.3 °C): 9.4556 mM⁻¹ s⁻¹
R1 ([1]; 11.7 °C): 8.8125 mM⁻¹ s⁻¹
R1 ([1]; 16.2 °C): 8.0690 mM⁻¹ s⁻¹
R1 ([1]; 20.6 °C): 7.4182 mM⁻¹ s⁻¹
R1 ([1]; 25.0 °C): 6.7426 mM⁻¹ s⁻¹
R1 ([1]; 29.5 °C): 6.2117 mM⁻¹ s⁻¹
R1 ([1]; 33.9 °C): 5.7089 mM⁻¹ s⁻¹
R1 ([1]; 38.4 °C): 5.2984 mM⁻¹ s⁻¹
R1 ([1]; 42.8 °C): 4.8917 mM⁻¹ s⁻¹
R1 ([1]; 47.3 °C): 4.5992 mM⁻¹ s⁻¹
R1 ([1]; 51.7 °C): 4.3083 mM⁻¹ s⁻¹
R1 ([1]; 56.2 °C): 4.0592 mM⁻¹ s⁻¹
R1 ([1]; 60.6 °C): 3.8806 mM⁻¹ s⁻¹
R1 [1, 6]: 4.2102 mM⁻¹ s⁻¹
net loss in R1 after denatured samples cooled to physiological temperature [1]: 0.5 mM^−1 sec^−1
loss in observed R1 during denaturation of the HSA [1]: 0.1 mM⁻¹ s⁻¹
binding to native or denatured HSA ([1]; inferred from R1 change during thermal denaturation): does not bind to either native or denatured HSA
% Loss ROI ([2]; 0 min, 25.3 °C, 1.0 Tesla): −0.2456%
% Loss ROI ([2]; 10 min, 29.6 °C, 1.0 Tesla): −5.1875%
% Loss ROI ([2]; 20 min, 38.3 °C, 1.0 Tesla): −12.806%
% Loss ROI ([2]; 30 min, 45.0 °C, 1.0 Tesla): −18.985%
% Loss ROI ([2]; 40 min, 53.0 °C, 1.0 Tesla): −30.964%
% Loss ROI ([2]; 50 min, 64.7 °C, 1.0 Tesla): −43.833%
% Loss ROI ([2]; 60 min, 72.8 °C, 1.0 Tesla): −46.086%
% Loss ROI ([2]; 70 min, 87.1 °C, 1.0 Tesla): −47.529%
% Loss ROI [2, 7]: −10.190%
loss in signal intensity after denaturation and cooling [2]: 10%
loss of signal intensity on thermal denaturation [2]: only a modest change
decrease/change in observed relaxivity during ethanol ablation [3]: 0.3 mM⁻¹ s⁻¹
R1 0.31 mM Gd-DTPA ([3]; ethanol 0.0 %): 4.1737 mM⁻¹ s⁻¹
R1 0.31 mM Gd-DTPA ([3]; ethanol 16.1 %): 4.7191 mM⁻¹ s⁻¹
R1 0.31 mM Gd-DTPA ([3]; ethanol 27.8 %): 5.0021 mM⁻¹ s⁻¹
R1 0.31 mM Gd-DTPA ([3]; ethanol 36.6 %): 4.9347 mM⁻¹ s⁻¹
R1 0.31 mM Gd-DTPA ([3]; ethanol 43.5 %): 4.7997 mM⁻¹ s⁻¹
R1 0.31 mM Gd-DTPA ([3]; ethanol 49.0 %): 4.4623 mM⁻¹ s⁻¹
AUC-conc. from 0 to 10 minutes [4]: 3.5 mM·min

R1 ([1]; 7.3 °C): 31.2 mM⁻¹ s⁻¹
R1 ([1]; 11.7 °C): 33.4 mM⁻¹ s⁻¹
R1 ([1]; 16.2 °C): 36.0 mM⁻¹ s⁻¹
R1 ([1]; 20.6 °C): 38.6 mM⁻¹ s⁻¹
R1 ([1]; 25.0 °C): 40.6 mM⁻¹ s⁻¹
R1 ([1]; 29.5 °C): 42.0 mM⁻¹ s⁻¹
R1 ([1]; 33.9 °C): 42.8 mM⁻¹ s⁻¹
R1 ([1]; 38.4 °C): 42.4 mM⁻¹ s⁻¹
R1 ([1]; 42.8 °C): 42.3 mM⁻¹ s⁻¹
R1 ([1]; 47.3 °C): 41.3 mM⁻¹ s⁻¹
R1 ([1]; 51.7 °C): 39.5 mM⁻¹ s⁻¹
R1 ([1]; 56.2 °C): 37.5 mM⁻¹ s⁻¹
R1 ([1]; 60.6 °C): 33.3 mM⁻¹ s⁻¹
R1 [1, 6]: 10.8 mM⁻¹ s⁻¹
net loss in R1 after denatured samples cooled to physiological temperature [1]: 25 mM^−1 sec^−1
loss in observed R1 during denaturation of the HSA [1]: 26.7 mM⁻¹ s⁻¹
% Loss ROI ([2]; 0 min, 25.3 °C, 1.0 Tesla): 0.0000%
% Loss ROI ([2]; 10 min, 29.6 °C, 1.0 Tesla): −4.4755%
% Loss ROI ([2]; 20 min, 38.3 °C, 1.0 Tesla): −6.4144%
% Loss ROI ([2]; 30 min, 45.0 °C, 1.0 Tesla): −11.241%
% Loss ROI ([2]; 40 min, 53.0 °C, 1.0 Tesla): −26.153%
% Loss ROI ([2]; 50 min, 64.7 °C, 1.0 Tesla): −49.262%
% Loss ROI ([2]; 60 min, 72.8 °C, 1.0 Tesla): −69.499%
% Loss ROI ([2]; 70 min, 87.1 °C, 1.0 Tesla): −76.469%
% Loss ROI [2, 7]: −31.869%
brightness of phantoms in initial T1-weighted MRI scans ([2]; about 25° C., 1.0 Tesla, versus phantoms with Gd-DTPA or 4.5% HSA alone): brighter
loss in signal intensity after denaturation and cooling [2]: 32%
loss of signal intensity on thermal denaturation [2]: 76%
decrease/change in observed relaxivity during ethanol ablation [3]: 33 mM⁻¹ s⁻¹
R1 0.08 mM MS-325 ([3]; ethanol 0.0 %): 42.216 mM⁻¹ s⁻¹
R1 0.08 mM MS-325 ([3]; ethanol 0.9 %): 40.848 mM⁻¹ s⁻¹
R1 0.08 mM MS-325 ([3]; ethanol 1.9 %): 39.541 mM⁻¹ s⁻¹
R1 0.08 mM MS-325 ([3]; ethanol 2.8 %): 38.423 mM⁻¹ s⁻¹
R1 0.08 mM MS-325 ([3]; ethanol 3.7 %): 37.064 mM⁻¹ s⁻¹
R1 0.08 mM MS-325 ([3]; ethanol 4.5 %): 36.375 mM⁻¹ s⁻¹
R1 0.08 mM MS-325 ([3]; ethanol 5.4 %): 35.234 mM⁻¹ s⁻¹
R1 0.08 mM MS-325 ([3]; ethanol 6.2 %): 34.576 mM⁻¹ s⁻¹
R1 0.08 mM MS-325 ([3]; ethanol 7.1 %): 33.895 mM⁻¹ s⁻¹
R1 0.08 mM MS-325 ([3]; ethanol 7.9 %): 33.099 mM⁻¹ s⁻¹
R1 0.08 mM MS-325 ([3]; ethanol 8.7 %): 32.224 mM⁻¹ s⁻¹
R1 0.08 mM MS-325 ([3]; ethanol 10.2 %): 31.689 mM⁻¹ s⁻¹
R1 0.08 mM MS-325 ([3]; ethanol 11.7 %): 30.403 mM⁻¹ s⁻¹
R1 0.08 mM MS-325 ([3]; ethanol 16.4 %): 26.939 mM⁻¹ s⁻¹
R1 0.08 mM MS-325 ([3]; ethanol 22.8 %): 21.456 mM⁻¹ s⁻¹
R1 0.08 mM MS-325 ([3]; ethanol 28.3 %): 17.428 mM⁻¹ s⁻¹
R1 0.08 mM MS-325 ([3]; ethanol 33.1 %): 14.082 mM⁻¹ s⁻¹
R1 0.08 mM MS-325 ([3]; ethanol 37.3 %): 11.187 mM⁻¹ s⁻¹
R1 0.08 mM MS-325 ([3]; ethanol 41.0 %): 9.6943 mM⁻¹ s⁻¹
R1 0.08 mM MS-325 ([3]; ethanol 44.2 %): 8.9506 mM⁻¹ s⁻¹
R1 0.08 mM MS-325 ([3]; ethanol 47.2 %): 8.7970 mM⁻¹ s⁻¹
Structure (SMILES): O=C(O)CN(CCN(CC(=O)O)CC(COP(=O)(O)OC1CCC(c2ccccc2)(c2ccccc2)CC1)N(CC(=O)O)CC(=O)O)CC(=O)O (stereo not drawn) [MS-325]

Structure (SMILES): CN(C)CCCN1c2ccccc2Sc2ccc(Cl)cc21 [chloropromazine]
Ka [5]: 35.4×10^5
